Assay results: patent publication US6831075B2, “Heterocyclic substituted pyrazolones” (Cephalon, Inc., priority 1999, dated 2004)

How the values were obtained:
Format in all cases: biochemical
baculoviral GST-MLK1KD = target: T1, baculoviral GST-MLK1KD (Homo sapiens, UniProt P80192); test: Mixed Lineage Kinase-1 inhibition assay (Millipore Multiscreen TCA in-plate, 32P); conditions: for MLK-1 Kinase % inhibition @ 1 uM: 1 uM compound, 60 μM ATP; for inhibition at 1 µM: read-out: MLK-1 Kinase % inhibition @ 1 uM
T1 construct: 1 μg/ml of baculoviral GST-MLK1KD; GST (N); host or cells: baculovirus expression system
Experimental: Inhibition of Mixed Lineage Kinase-1 Activity
The kinase activity of MLK1 was assessed using the Millipore Multiscreen TCA “in-plate” format as described for protein kinase C (Pitt & Lee, J. Biomol. Screening, 1: 47-51, 1996). Briefly, each 50-μl assay mixture contained 20 mM Hepes, pH 7.0, 1 mM EGTA, 10 mM MgCl2, 1 mM DTT, 25 mM β-glycerophosphate, 60 μM ATP, 0.25 μCi [γ-^32P]ATP, 0.1% BSA, 500 μg/ml myelin basic protein (UBI #13-104), 2% DMSO, 1 μM of test compound, and 1 μg/ml of baculoviral GST-MLK1KD. Samples were incubated for 15 min at 37° C. The reaction was stopped by adding ice cold 50% TCA and the protein were allowed to precipitate for 30 min at 4° C. The plates were then washed with ice cold 25% TCA. Supermix scintillation cocktail was added, and the plates were allowed to equilibrate for 1-2 hours prior to counting using the Wallac MicroBeta 1450 PLUS scintillation counter.

[1] = target: T2, baculovirus-expressed human trkA cytoplasmic domain (Homo sapiens, UniProt P04629); test: trkA tyrosine kinase inhibition assay (ELISA-based); conditions: 1 uM compound; 40 μM ATP
T2 construct: baculovirus-expressed human trkA cytoplasmic domain; host or cells: baculovirus expression system
Experimental: Inhibition of trkA Tyrosine Kinase Activity
Selected heterocyclic substituted pyrazolones were tested for their ability to inhibit the kinase activity of baculovirus-expressed human trkA cytoplasmic domain using an ELISA-based assay as previously described (Angeles et al., Anal. Biochem. 236: 49-55, 1996). Briefly, a 96-well microtiter plate was coated with substrate solution (recombinant human phospholipase C-γl/glutathione S-transferase fusion protein (Rotin et al., EMBO J., 11: 559-567, 1992). Inhibition studies were performed in 100 μl assay mixtures containing 50 mM Hepes, pH 7.4, 40 μM ATP, 10 mM MnCl2, 0.1% BSA, 2% DMSO, and various concentrations of inhibitor. The reaction was initiated by addition of trkA kinase and allowed to proceed for 15 minutes at 37° C. An antibody to phosphotyrosine (UBI) was then added, followed by a secondary enzyme-conjugated antibody, alkaline phosphatase-labelled goat anti-mouse IgG (Bio-Rad). The activity of the bound enzyme was measured via an amplified detection system (Gibco-BRL). Inhibition data were analyzed using the sigmoidal dose-response (variable slope) equation in GraphPad Prism.

[2] = target: T3, recombinant human baculoviral VEGFR2 cyctoplasmic domain (Homo sapiens, UniProt P35968); test: VEGFR2 kinase inhibition assay (ELISA-based, time-resolved fluorescence); conditions: 1 uM compound, 30 μM ATP; for inhibition at 1 µM: read-out: VEGFR-2 kinase % inhibition @ 1 uM
T3 construct: recombinant human baculoviral VEGFR2 cyctoplasmic domain; host or cells: baculovirus expression system
Experimental: Inhibition of Vascular Endothelial Growth Factor Receptor-2 Kinase Activity
Assay were performed as described for trkA kinase below. The 96-well microtiter plate (FluoroNUNC Maxisorp) was coated with 40 μg/ml recombinant human phospholipase C-γ1/glutathione S-transferase fusion protein. Inhibition studies were performed in 100 μl assay mixtures containing 50 mM HEPES, pH 7.4, 30 μM ATP, 10 mM MnCl2, 0.1% BSA, 2% DMSO, and 1 μM of test compound. The reaction was initiated by adding prephosphorylated recombinant human baculoviral VEGFR2 cyctoplasmic domain. The reaction was allowed to proceed for 15 minutes at 37° C. The detection antibody, eurpium-labeled anti-phosphotyrosine antibody (Wallac #CR04-100), was added at 1:5000 dilution in block buffer (3% BSA in TBST).

T2 sequence (P04629 440-796 limits assumed): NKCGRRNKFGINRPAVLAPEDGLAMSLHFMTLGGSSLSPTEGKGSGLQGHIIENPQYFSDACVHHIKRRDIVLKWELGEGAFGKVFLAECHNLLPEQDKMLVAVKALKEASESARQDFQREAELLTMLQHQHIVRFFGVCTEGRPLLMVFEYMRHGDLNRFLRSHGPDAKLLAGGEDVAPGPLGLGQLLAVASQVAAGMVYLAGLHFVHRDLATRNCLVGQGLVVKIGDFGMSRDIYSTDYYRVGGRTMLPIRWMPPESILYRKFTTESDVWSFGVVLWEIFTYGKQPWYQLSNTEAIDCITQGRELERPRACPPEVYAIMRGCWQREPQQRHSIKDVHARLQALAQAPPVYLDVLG
T1 sequence (P80192 144-412 limits assumed): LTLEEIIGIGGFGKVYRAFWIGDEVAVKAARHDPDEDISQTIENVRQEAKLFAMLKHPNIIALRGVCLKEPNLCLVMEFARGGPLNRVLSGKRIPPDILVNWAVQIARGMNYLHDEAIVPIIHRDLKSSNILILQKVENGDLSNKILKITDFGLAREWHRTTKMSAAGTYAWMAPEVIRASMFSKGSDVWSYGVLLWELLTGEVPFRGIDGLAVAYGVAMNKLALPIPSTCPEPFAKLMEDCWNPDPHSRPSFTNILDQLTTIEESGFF
T3 sequence (P35968 786-1356 limits assumed): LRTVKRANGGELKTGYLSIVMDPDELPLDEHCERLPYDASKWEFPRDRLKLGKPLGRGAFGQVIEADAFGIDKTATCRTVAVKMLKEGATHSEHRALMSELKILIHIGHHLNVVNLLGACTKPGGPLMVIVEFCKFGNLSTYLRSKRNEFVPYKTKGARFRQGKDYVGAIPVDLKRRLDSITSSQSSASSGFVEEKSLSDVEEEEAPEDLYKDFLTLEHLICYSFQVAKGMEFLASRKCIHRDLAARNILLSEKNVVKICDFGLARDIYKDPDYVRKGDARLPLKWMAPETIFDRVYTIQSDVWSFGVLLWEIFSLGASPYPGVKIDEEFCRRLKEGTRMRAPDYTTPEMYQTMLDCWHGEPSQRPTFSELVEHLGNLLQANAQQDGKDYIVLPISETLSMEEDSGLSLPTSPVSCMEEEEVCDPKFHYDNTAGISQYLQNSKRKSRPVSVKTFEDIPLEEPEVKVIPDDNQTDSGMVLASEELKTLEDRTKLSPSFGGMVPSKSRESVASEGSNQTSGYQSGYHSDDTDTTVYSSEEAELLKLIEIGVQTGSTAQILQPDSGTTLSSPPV

## Cn1cc(C=C2C(=O)NN=C2c2ccoc2)c2ccccc21 [Compound 20]
Baculoviral GST-MLK1KD
  MLK-1 Kinase % inhibition @ 1 uM: 21%
[1]
  trkA % inhibition @ 1 uM: 60%
[2]
  VEGFR-2 kinase % inhibition @ 1 uM: 67%

## O=C1NN=C(c2ccoc2)C1=Cc1c[nH]c2ccc(OCc3ccccc3)cc12 [Compound 21]
Baculoviral GST-MLK1KD
  MLK-1 Kinase % inhibition @ 1 uM: 4%
[1]
  trkA % inhibition @ 1 uM: 56%
[2]
  VEGFR-2 kinase % inhibition @ 1 uM: 12%

## Cc1cccc2c(C=C3C(=O)NN=C3c3ccoc3)c[nH]c12 [Compound 22]
Baculoviral GST-MLK1KD
  MLK-1 Kinase % inhibition @ 1 uM: 1%
[1]
  trkA % inhibition @ 1 uM: 44%
[2]
  VEGFR-2 kinase % inhibition @ 1 uM: 41%

## Cc1cc(C)c(C=C2C(=O)NN=C2c2ccn(C)c2)[nH]1 [Compound 23]
Baculoviral GST-MLK1KD
  MLK-1 Kinase % inhibition @ 1 uM: 30%
[1]
  trkA % inhibition @ 1 uM: 26%
[2]
  VEGFR-2 kinase % inhibition @ 1 uM: 7%

## Cn1ccc(C2=NNC(=O)C2=Cc2c[nH]c3ccccc23)c1 [Compound 24]
Baculoviral GST-MLK1KD
  MLK-1 Kinase % inhibition @ 1 uM: 10%
[1]
  trkA % inhibition @ 1 uM: 22%
[2]
  VEGFR-2 kinase % inhibition @ 1 uM: 32%

## O=C1NN=C(c2nccs2)C1=Cc1c[nH]c2ccccc12 [Compound 25, 4-(indol-3-ylmethylene)-3-(1,3-thiazol-2-yl)-2-pyrazolin-5-one]
Baculoviral GST-MLK1KD
  inhibition at 1 µM: 11%
[1]
  inhibition at 1 µM: 65%
[2]
  inhibition at 1 µM: 64%

## Cc1cc(C)c(C=C2C(=O)NN=C2c2nccs2)[nH]1 [Compound 26, 4-[(3,5-dimethylpyrrol-2-yl)methylene]-3-(1,3-thiazol-2-yl)-2 pyrazolin-5-one]
Baculoviral GST-MLK1KD
  inhibition at 1 µM: 10%
[1]
  inhibition at 1 µM: 42%

## Cc1cc(C)c(C=C2C(=O)NN=C2c2c(C)coc2C)[nH]1 [Compound 27]
Baculoviral GST-MLK1KD
  MLK-1 Kinase % inhibition @ 1 uM: 6%
[1]
  trkA % inhibition @ 1 uM: 49%
[2]
  VEGFR-2 kinase % inhibition @ 1 uM: 40%

## Cc1cc(C)c(C=C2C(=O)NN=C2c2ccco2)[nH]1 [Compound 28, 4-[(3,5-dimethylpyrrol-2-yl)methylene]-3-(2-furyl)-2-pyrazolin-5-one]
Baculoviral GST-MLK1KD
  inhibition at 1 µM: 2%
[1]
  inhibition at 1 µM: 34%
[2]
  inhibition at 1 µM: 80%

## O=C1NN=C(c2ccco2)C1=Cc1c[nH]c2ccccc12 [Compound 29, 3-(2-furyl)-4-(indol-3-ylmethylene)-2-pyrazolin-5-one]
Baculoviral GST-MLK1KD
  inhibition at 1 µM: 21%
[1]
  inhibition at 1 µM: 43%
[2]
  inhibition at 1 µM: 68%

## Cc1cc(C)c(C=C2C(=O)NN=C2c2ccccn2)[nH]1 [Compound 30]
Baculoviral GST-MLK1KD
  MLK-1 Kinase % inhibition @ 1 uM: 2%
[1]
  trkA % inhibition @ 1 uM: 22%
[2]
  VEGFR-2 kinase % inhibition @ 1 uM: 68%

## Cn1ccc(C2=NNC(=O)C2=Cc2c[nH]c3cccc(OCc4ccccc4)c23)c1 [Compound 31]
Baculoviral GST-MLK1KD
  MLK-1 Kinase % inhibition @ 1 uM: 27%
[1]
  trkA % inhibition @ 1 uM: 39%
[2]
  VEGFR-2 kinase % inhibition @ 1 uM: 16%

## Cn1ccc(C2=NNC(=O)C2=Cc2c[nH]c3ccc(F)cc23)c1 [Compound 32]
Baculoviral GST-MLK1KD
  MLK-1 Kinase % inhibition @ 1 uM: 5%
[1]
  trkA % inhibition @ 1 uM: 8%
[2]
  VEGFR-2 kinase % inhibition @ 1 uM: 47%

## Cc1ccc2c(C=C3C(=O)NN=C3c3ccn(C)c3)c[nH]c2c1 [Compound 33]
Baculoviral GST-MLK1KD
  MLK-1 Kinase % inhibition @ 1 uM: 8%
[1]
  trkA % inhibition @ 1 uM: 32%
[2]
  VEGFR-2 kinase % inhibition @ 1 uM: 25%

## Cc1cccc2c(C=C3C(=O)NN=C3c3ccn(C)c3)c[nH]c12 [Compound 34]
Baculoviral GST-MLK1KD
  MLK-1 Kinase % inhibition @ 1 uM: 17%
[1]
  trkA % inhibition @ 1 uM: 25%
[2]
  VEGFR-2 kinase % inhibition @ 1 uM: 32%

## Cn1ccc(C2=NNC(=O)C2=Cc2c[nH]c3ccc(Cl)cc23)c1 [Compound 35]
Baculoviral GST-MLK1KD
  MLK-1 Kinase % inhibition @ 1 uM: 7%
[1]
  trkA % inhibition @ 1 uM: 23%
[2]
  VEGFR-2 kinase % inhibition @ 1 uM: 19%

## Cc1cc(C)c(C=C2C(=O)NN=C2c2cc(C)oc2C)[nH]1 [Compound 36]
Baculoviral GST-MLK1KD
  MLK-1 Kinase % inhibition @ 1 uM: −9%
[1]
  trkA % inhibition @ 1 uM: 40%
[2]
  VEGFR-2 kinase % inhibition @ 1 uM: 27%

## Cn1cc(C=C2C(=O)NN=C2c2nccs2)c2ccccc21 [Compound 60]
Baculoviral GST-MLK1KD
  MLK-1 Kinase % inhibition @ 1 uM: 37%
[1]
  trkA % inhibition @ 1 uM: 71%

## Cc1cc(C)c(C=C2C(=O)NN=C2c2cnccn2)[nH]1 [Compound 74, 4-[(3,5-dimethylpyrrol-2-yl)methylene]-3-pyrazin-2-yl-2-pyrazolin-5-one]
Baculoviral GST-MLK1KD
  inhibition at 1 µM: 44%
[1]
  inhibition at 1 µM: 53%
